Laboratory results: the supplement of paper PMC8988213
Counter-ions that a name gives are not always drawn.

Experiments:
[1] = tested on: ID188 patient-derived PDAC 2D line (pre-FOLFIRINOX); assay: normalised area under dose-response curve (viability relative to DMSO, 7 doses up to 10 µM) (fraction (AUC)); higher = less sensitive (more viability retained); conditions: 72 h; top dose: 10 µM
Experimental: (§1)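 Patient-derived 2D PDAC cells (ID188 pre-FOLFIRINOX, passage 5+27; ID211 post-FOLFIRINOX, passage 9+11), 1,500-3,000 cells/well in 96-well plates, were treated with a 415-compound Selleck library in seven concentrations (3-fold dilution series, top 10 µM) for 72 h. Viability was read by CellTiter-Glo ATP luminescence, normalised to the DMSO control, and the area under the dose-response curve was computed with the GRmetrics R package; a lower AUC means higher sensitivity.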

[2] = tested on: ID211 patient-derived PDAC 2D line (post-FOLFIRINOX); assay: as above; conditions: 72 h; top dose: 10 µM
Experimental: as §1

Structure (SMILES)	normalised area under dose-response curve [1]	normalised area under dose-response curve [2]
O=C(O)c1cc(I)ccc1NC(=O)[C@H](Cc1ccccc1)NCc1ccccc1 [CW069]	0.937	0.842
CN1CCN(c2nc(C3=C(c4c[nH]c5ccccc45)C(=O)NC3=O)c3ccccc3n2)CC1 [Sotrastaurin]	0.978	0.941
CC(C)c1ccc2c(c1)c(SC(C)(C)C)c(CC(C)(C)C(=O)O)n2Cc1ccc(Cl)cc1 [MK-886 (L-663,536)]	0.989	0.843
CCC1C/C(=C\c2cccnc2)C(=O)/C(=C/c2cccnc2)C1 (stereo not drawn) [MCB-613]	0.764	0.778
NC1(c2ccc(-c3nc4ccn5c(=O)[nH]nc5c4cc3-c3ccccc3)cc2)CCC1 [MK-2206 2HCl]	0.844	0.672
Cc1nc(Nc2n[nH]c3c2CN(C(=O)N[C@H](CN(C)C)c2ccccc2)C3(C)C)c2sccc2n1	0.578	0.551
CN1CCN(CCOc2cc(OC3CCOCC3)c3c(Nc4c(Cl)ccc5c4OCO5)ncnc3c2)CC1 [Saracatinib (AZD0530)]	0.858	0.609
CCCCCCCCCCCCCC(=S)NCCCC[C@H](NC(=O)OCc1ccccc1)C(=O)Nc1ccccc1 [Thiomyristoyl]	0.925	0.787
N[C@@H](Cc1ccc(N(CCCl)CCCl)cc1)C(=O)O [Melphalan]	0.87	0.853
Oc1nc(-c2ccc(C(F)(F)F)cc2)nc2c1CSCC2 [XAV-939]	0.89	0.928
O=C1C(=Cc2cccnc2)C(=O)c2ccccc21 [PRT4165]	0.875	0.746
NS(=O)(=O)OC[C@@H]1C[C@@H](n2ccc3c(N[C@H]4CCc5ccccc54)ncnc32)C[C@@H]1O [Pevonedistat (MLN4924)]	0.825	0.589
COCCOc1ccc2c(c1)ncn2-c1ccc2cccc(N3CCC(N)CC3)c2n1	0.974	1.03
Cn1cc(C2=C(c3cn(C4CCN(Cc5ccccn5)CC4)c4ccccc34)C(=O)NC2=O)c2ccccc21	0.917	0.933
O=C(NNc1nc2cc(F)ccc2n2cccc12)c1cnccn1 [SC144]	0.795	0.631
Cc1cc(NC(=O)c2cccc(NC(=O)/C=C/CN(C)C)c2)ccc1Nc1nccc(-c2cccnc2)n1 [JNK-IN-8]	0.874	0.842
CC(C)C[C@H](NC(=O)CNC(=O)c1cc(Cl)ccc1Cl)B1OC(=O)C(CC(=O)O)(CC(=O)O)O1 [Ixazomib Citrate (MLN9708)]	0.425	0.48
c1cn2cc(-c3ccc4cn[nH]c4c3)nc(Nc3ccc(N4CCOCC4)cc3)c2n1 [Entospletinib (GS-9973)]	0.891	0.792
Nc1nccc(Oc2ccc3c(C(=O)Nc4cccc(C(F)(F)F)c4)cccc3c2)n1 [BAW2881 (NVP-BAW2881)]	0.885	0.961
CC(C)n1nc(-c2ccc3oc(N)nc3c2)c2c(N)ncnc21 [Sapanisertib (INK 128, MLN0128)]	0.541	0.389
CC(C)CC(CC(=O)NO)C(=O)N[C@@H](Cc1ccc2ccccc2c1)C(=O)N[C@@H](C)C(=O)NCCN (stereo partly drawn) [TAPI-1]	0.641	0.9
COCC[n+]1c2c(n(Cc3cnccn3)c1C)C(=O)c1ccccc1C2=O [YM155 (Sepantronium Bromide)]	0.0409	0.279

Structure (SMILES)	normalised area under dose-response curve [1]	normalised area under dose-response curve [2]
NC(=O)/C(=C/n1cnc(-c2cc(C(F)(F)F)cc(C(F)(F)F)c2)n1)c1cncnc1 [Eltanexor (KPT-8602)]	0.574	0.579
Cc1nc(NC(=O)N2CCC[C@H]2C(N)=O)sc1-c1ccnc(C(C)(C)C(F)(F)F)c1 [Alpelisib (BYL719)]	0.892	0.696
O=C(Nc1ccc(OC(F)(F)F)cc1)c1sccc1NCc1ccnc2ccccc12 [OSI-930]	0.904	0.819
N#CC[C@H](C1CCCC1)n1cc(-c2ncnc3[nH]ccc23)cn1	0.945	0.892
COc1cc(CCc2cc(NC(=O)c3ccc(N4CC(C)NC(C)C4)cc3)n[nH]2)cc(OC)c1 (stereo not drawn) [AZD4547]	0.998	0.829
CCc1cncnc1N1CCN(Cc2nc3ccc(C(F)(F)F)cc3[nH]2)CC1	0.92	0.936
CCOc1ccccc1-n1c(C(C)N2CCN(C(=O)COc3ccc(Cl)cc3)CC2)nc2ccccc2c1=O (stereo not drawn) [Erastin]	0.856	0.813
Nc1ncnc2n[nH]c(Nc3ccc(F)cc3)c12	0.947	0.864
O=C(O)CCN1C(=O)/C(=C/c2ccc(-c3ccc([N+](=O)[O-])cc3)o2)SC1=S [KYA1797K]	0.976	0.835
CC(C)(C)C(=O)Nc1ccc2c(c1)C(=O)C(=O)c1ccccc1-2 [SF1670]	0.966	0.809
O=C([O-])C(Cl)Cl.[Na+] [Sodium dichloroacetate (DCA)]	0.996	0.951
C/C=C1\NC(=O)[C@H]2CSSCC/C=C/[C@H](CC(=O)N[C@H](C(C)C)C(=O)N2)OC(=O)[C@H](C(C)C)NC1=O [Romidepsin]	0.138	0.171
C[C@@H]1CN(CC(=O)Nc2ccc3c(c2)Cc2cccc(-c4cc(=O)cc(N5CCOCC5)o4)c2S3)C[C@H](C)O1	0.936	0.842
COCCOc1nc(-c2ccc(Cl)c(Cl)c2)n(-c2ccc(NC(=O)CCl)cc2)n1 [MI-2 (MALT1 inhibitor)]	0.897	0.573
Cc1cc([N+](=O)[O-])ccc1NS(=O)(=O)c1cc(Cl)ccc1Cl [FH535]	0.91	0.922
CS(=O)(=O)c1ccc(C(=O)Nc2ccc(Cl)c(-c3ccccn3)c2)c(Cl)c1 [Vismodegib (GDC-0449)]	0.926	0.84
Cc1cc(Nc2cc(N)ncn2)c(=O)n2c1C(=O)NC21CCCCC1 [eFT-508 (eFT508)]	0.977	1.01
CNC(=O)c1ccc2cc([C@@]3(O)CCn4cncc43)ccc2c1 [TAK-700 (Orteronel)]	1	0.863
O=c1[nH]cc(F)c(=O)[nH]1 [Fluorouracil (5-Fluoracil, 5-FU)]	0.854	0.804
CN(C)C(=O)c1cc2cnc(Nc3ccc(N4CCNCC4)cn3)nc2n1C1CCCC1 [Ribociclib (LEE011)]	0.961	0.812
Cc1c(CN2CCN(C(=O)[C@H](C)O)CC2)sc2c(N3CCOCC3)nc(-c3cnc(N)nc3)nc12 [Apitolisib (GDC-0980, RG7422)]	0.606	0.54
CCc1cc(Nc2nccc(-c3c(-c4ccc(OC)c(C(=O)Nc5c(F)cccc5F)c4)nc4ccccn34)n2)c(OC)cc1N1CCC(N2CCN(S(C)(=O)=O)CC2)CC1	0.94	0.829
